The text below walks through data of US20080242646A1, “Split dose corticosteroid therapy” (priority 2007, published 2008).

For experiment [1], the system named is CRP. Nature of the experiment: CRP measurements in the 14 week blinded randomized study. It is filed as in vivo, human. Conditions: ITT (LOCF). The text has this: The study population had active rheumatoid arthritis.
The powered study ended after these first 10 weeks. […] A schematic of the study design is shown below.

The subject of experiment [2] is subjects with active rheumatoid arthritis. Conditions: ITT, missing = non-responder, subjects (% of arm).
Description: ACR-20/50/70 refers to a composite improvement of 20%, 50% or 70% in swollen joint count, tender joint count, and 3 or more of the following 5 measures: patient's own global assessment of RA disease activity; physician's global assessment of disease activity; patient's own assessment of pain due to RA; acute-phase reactant (CRP); and patient's self-addressed disability (Health Assessment Questionnaire).
(§1) We conducted a 14 week blinded, randomized study including a split dose corticosteroid therapy or placebo, with regular CRP and inflammatory cytokine measurements. The study population had active rheumatoid arthritis. The subject must otherwise have been in good general health.
(§2) Screening Visit • Day 1 (Baseline Visit)—Start of Run-In Period • Day 14 (±2 days)—End of Run-In Period/Start of Treatment Period • Day 42 (±2 days) • Day 70 (±2 days)—End of Treatment Period/Start of Withdrawal Period • Day 98 (±2 days)—End of Study
(§3) All eligible subjects received DMARD therapy in a stable dose. Subjects were evaluated for study eligibility at the Screening visit, which was conducted within 14 days before the first dose of study drug. The subject provided written informed consent to participate in the study before any Screening laboratory samples were collected or evaluations performed.
(§4) All subjects were given 3 mg prednisolone alone for 2 weeks (Run-In Period). Subjects were then randomized into treatment groups to additionally receive 10 mg paroxetine, 20 mg paroxetine or placebo tablets for 8 weeks (Combination Treatment Period). The powered study ended after these first 10 weeks. All subjects continued in an un-powered part of the study for an additional 4 weeks (Withdrawal Period). In this portion of the study, half of the subjects on 10 mg or 20 mg paroxetine plus 3 mg prednisolone stopped taking paroxetine, and instead took 3 mg prednisolone plus placebo, while the other half stopped taking prednisolone, and instead took either dose of paroxetine plus placebo. Similarly, half of the subjects on prednisolone plus placebo stopped the prednisolone, and instead took two placebo tablets, while the other half continued the regimen of 3 mg prednisolone plus placebo.
Experiment [3] shares this test system. Conditions: ITT (LOCF).
Description: A visual analog scale (VAS) provides a measure of a one-dimensional quantity. A VAS generally utilizes a representation of distance, such as a picture of a line with hash marks drawn at regular distance intervals, e.g., ten 1-cm intervals. […] This procedure provides a simple and rapid approach to obtaining quantitative information about how the patient is experiencing pain. VAS scales can also be used, e.g., to measure fatigue.
as §1, §2, §3, §4
The conditions of experiment [4]: cited from earlier work; for Equivalent dose, Equal to 1 mg prednisolone / Equivalent dose, Equal to 5 mg prednisolone: BNF guidelines.
Where [5] appears, read: Day 14 (end of run-in, 3 mg prednisolone alone in all arms).

Like-named read-outs stand apart in the source and are kept apart here.

Take `C[C@]12C=CC(=O)C=C1CC[C@@H]1[C@@H]2[C@@H](O)C[C@@]2(C)[C@H]1CC[C@]2(O)C(=O)CO` [3 mg Prednisolone + Placebo, prednisolone]: in experiment [1] (setting [5]), the “CRP % Change from baseline, Max” value is on record as 1700.0%; the “CRP % Change from baseline, Mean (Std Dev)” value (“CRP % Change … (Std Dev)” for short) was 7.11 (215.970) %; the “CRP % Change from baseline, Median” value was −32.26%; the “CRP % Change from baseline, Min” value is −95.8%. For the same compound, in experiment [1] (setting [5]), the “CRP Change from baseline, Max” value stood at 77.9; the “CRP Change from baseline, Mean (Std Dev)” value is −7.40 (20.149); the “CRP Change from baseline, Median” value is on record as −1.70; the “CRP Change from baseline, Min” value was −83.2. Besides, in experiment [1] (setting [5]), the “CRP Value, Max” value is given as 107.3; the “CRP Value, Mean (Std Dev)” value is reported as 11.42 (17.413); the “CRP Value, Median” value was determined as 6.20; the “CRP Value, Min” value was determined as 0.3. Further, in experiment [1] (Day 42), the “CRP % Change from baseline, Max” value is reported as 187.3%; the “CRP % Change … (Std Dev)” value is given as −17.67 (58.589) %; the “CRP % Change from baseline, Median” value is recorded as −23.53%; the “CRP % Change from baseline, Min” value was −92.5%. In experiment [1] (Day 42), the “CRP Change from baseline, Max” value came out at 21.5; the “CRP Change from baseline, Mean (Std Dev)” value is −8.61 (18.009); the “CRP Change from baseline, Median” value is given as −1.00; the “CRP Change from baseline, Min” value is reported as −81.4. Also, in experiment [1] (Day 42), the “CRP Value, Max” value is 70.6; the “CRP Value, Mean (Std Dev)” value is on record as 10.22 (12.443); the “CRP Value, Median” value is given as 5.40; the “CRP Value, Min” value is given as 0.3. Besides, in experiment [1] (Day 70), the “CRP % Change from baseline, Max” value was found to be 187.3%; the “CRP % Change … (Std Dev)” value is on record as −13.66 (64.905) %; the “CRP % Change from baseline, Median” value is recorded as −29.27%; the “CRP % Change from baseline, Min” value is −92.8%. In experiment [1] (Day 70), the “CRP Change from baseline, Max” value amounted to 15.5; the “CRP Change from baseline, Mean (Std Dev)” value is recorded as −8.95 (18.996); the “CRP Change from baseline, Median” value is −1.20; the “CRP Change from baseline, Min” value is listed as −87.7. For the same compound, in experiment [1] (Day 70), the “CRP Value, Max” value was 64.6; the “CRP Value, Mean (Std Dev)” value is recorded as 9.88 (11.956); the “CRP Value, Median” value came out at 5.70; the “CRP Value, Min” value was 0.2. In experiment [2] (setting [5]), the “ACR20 response from baseline: No” value was 53 (77), the “ACR20 response from baseline: Yes” value is 16 (23), the “ACR50 response from baseline: No” value is 64 (93) and the “ACR50 response from baseline: Yes” value was 5 (7). In experiment [2] (setting [5]), the “ACR70 response from baseline: No” value was 66 (96) and the “ACR70 response from baseline: Yes” value is on record as 3 (4). Moreover, in experiment [2] (Day 42), the “ACR20 response from baseline: No” value is given as 44 (64), the “ACR20 response from baseline: Yes” value is reported as 25 (36), the “ACR50 response from baseline: No” value is 60 (87) and the “ACR50 response from baseline: Yes” value is 9 (13). In experiment [2] (Day 42), the “ACR70 response from baseline: No” value was 67 (97) and the “ACR70 response from baseline: Yes” value is listed as 2 (3). Also, in experiment [2] (Day 70), the “ACR20 response from baseline: No” value is given as 39 (57), the “ACR20 response from baseline: Yes” value is listed as 30 (43), the “ACR50 response from baseline: No” value is reported as 55 (80) and the “ACR50 response from baseline: Yes” value was 14 (20). For the same compound, in experiment [2] (Day 70), the “ACR70 response from baseline: No” value was 65 (94) and the “ACR70 response from baseline: Yes” value is recorded as 4 (6). For the same compound, in experiment [3] (setting [5]), the “Patient Pain Assessment (VAS) score % Change from baseline, Max” value was 106.7%; the “Patient Pain Assessment (VAS) score % Change from baseline, Mean (Std Dev)” value was −13.65 (38.137) %; the “Patient Pain Assessment (VAS) score % Change from baseline, Median” value is on record as −11.11%; the “Patient Pain Assessment (VAS) score % Change from baseline, Min” value was −94.7%. Moreover, in experiment [3] (setting [5]), the “Patient Pain Assessment (VAS) score Change from baseline, Max” value is 35.0; the “Patient Pain Assessment (VAS) score Change from baseline, Mean (Std Dev)” value is on record as −7.73 (19.337); the “Patient Pain Assessment (VAS) score Change from baseline, Median” value is given as −5.00; the “Patient Pain Assessment (VAS) score Change from baseline, Min” value is recorded as −81.0. Moreover, in experiment [3] (setting [5]), the “Patient Pain Assessment (VAS) score Value, Max” value is recorded as 97.0; the “Patient Pain Assessment (VAS) score Value, Mean (Std Dev)” value was 45.58 (25.283); the “Patient Pain Assessment (VAS) score Value, Median” value is listed as 47.00; the “Patient Pain Assessment (VAS) score Value, Min” value was 2.0. In experiment [3] (Day 42), the “Patient Pain Assessment (VAS) score % Change from baseline, Max” value is on record as 186.7%; the “Patient Pain Assessment (VAS) score % Change from baseline, Mean (Std Dev)” value was −19.23 (47.955) %; the “Patient Pain Assessment (VAS) score % Change from baseline, Median” value is reported as −23.44%; the “Patient Pain Assessment (VAS) score % Change from baseline, Min” value is −93.5%. Besides, in experiment [3] (Day 42), the “Patient Pain Assessment (VAS) score Change from baseline, Max” value was determined as 56.0; the “Patient Pain Assessment (VAS) score Change from baseline, Mean (Std Dev)” value was −10.57 (21.630); the “Patient Pain Assessment (VAS) score Change from baseline, Median” value is −9.00; the “Patient Pain Assessment (VAS) score Change from baseline, Min” value is on record as −64.0. In experiment [3] (Day 42), the “Patient Pain Assessment (VAS) score Value, Max” value was determined as 97.0; the “Patient Pain Assessment (VAS) score Value, Mean (Std Dev)” value was 42.74 (26.143); the “Patient Pain Assessment (VAS) score Value, Median” value turned out to be 37.00; the “Patient Pain Assessment (VAS) score Value, Min” value was 2.0. In experiment [3] (Day 70), the “Patient Pain Assessment (VAS) score % Change from baseline, Max” value came to 233.3%; the “Patient Pain Assessment (VAS) score % Change from baseline, Mean (Std Dev)” value is recorded as −17.84 (57.121) %; the “Patient Pain Assessment (VAS) score % Change from baseline, Median” value is on record as −25.64%; the “Patient Pain Assessment (VAS) score % Change from baseline, Min” value is −90.5%. Also, in experiment [3] (Day 70), the “Patient Pain Assessment (VAS) score Change from baseline, Max” value came to 49.0; the “Patient Pain Assessment (VAS) score Change from baseline, Mean (Std Dev)” value is reported as −12.28 (23.864); the “Patient Pain Assessment (VAS) score Change from baseline, Median” value is listed as −10.00; the “Patient Pain Assessment (VAS) score Change from baseline, Min” value is −69.0. Besides, in experiment [3] (Day 70), the “Patient Pain Assessment (VAS) score Value, Max” value came to 97.0; the “Patient Pain Assessment (VAS) score Value, Mean (Std Dev)” value is reported as 41.04 (25.466); the “Patient Pain Assessment (VAS) score Value, Median” value was 39.00; the “Patient Pain Assessment (VAS) score Value, Min” value came to 2.0.

Turning to methyl prednisone, in experiment [4], the “Equivalent dose, Equal to 1 mg prednisolone” value is on record as 0.8 mg and the “Equivalent dose, Equal to 5 mg prednisolone” value is 4 mg.

For the compound `C[C@]12CCC(=O)C=C1CC[C@@H]1[C@@H]2[C@@H](O)C[C@@]2(C)[C@H]1CC[C@]2(O)C(=O)CO` [hydrocortisone], in experiment [4], the “Equivalent dose, Equal to 1 mg prednisolone” value is 4 mg and the “Equivalent dose, Equal to 5 mg prednisolone” value is recorded as 20 mg.

With `CC(=O)OCC(=O)[C@@]12N=C(C)O[C@@H]1C[C@H]1[C@@H]3CCC4=CC(=O)C=C[C@]4(C)[C@H]3[C@@H](O)C[C@@]12C` [deflazacort], in experiment [4], the “Equivalent dose, Equal to 1 mg prednisolone” value was 1.2 mg and the “Equivalent dose, Equal to 5 mg prednisolone” value is 6 mg.

`CC(=O)OCC(=O)[C@@]1(O)CC[C@H]2[C@@H]3CCC4=CC(=O)CC[C@]4(C)[C@H]3C(=O)C[C@@]21C` [cortisone acetate]: in experiment [4], the “Equivalent dose, Equal to 1 mg prednisolone” value is 5 mg and the “Equivalent dose, Equal to 5 mg prednisolone” value is 25 mg.

`C[C@]12C=CC(=O)C=C1CC[C@H]1[C@@H]3C[C@@H](O)[C@](O)(C(=O)CO)[C@@]3(C)C[C@H](O)[C@@]12F` [triamcinolone]: in experiment [4], the “Equivalent dose, Equal to 1 mg prednisolone” value is 0.8 mg and the “Equivalent dose, Equal to 5 mg prednisolone” value is recorded as 4 mg. Further, in experiment [4] (nasal administration, BNF 37 Mar. 1999), the “Broadly similar dose from clinical dosing equivalence” value was 110 µg.
